Legend:
[1] = system: retinal pigment epithelial cell line ARPE-19; experiment: Reduction of reactive oxygen species (DCF-DA fluorescence) in H2O2-treated retinal pigment epithelial cells; type: cell-based
Text: (§1) Reactive oxygen species were generated by treating retinal pigment epithelial cell line ARPE-19 with hydrogen peroxide (H2O2).
(§2) Degenerated retinal pigment epithelial cells that appear in age-related macular degeneration were set as a model cell line, and epithelial loss of retinal pigment epithelial cells was induced.
Using DCF-DA as a reactive oxygen species dye sample, the change in the level of reactive oxygen species in retinal pigment epithelial cells (ARPE-19) induced by GV1001 was confirmed by fluorescence microscopy, and the results are shown in FIGS. 6A and 6B. DCF-DA fluorescence intensity increased when oxidative stress was induced by H2O2, but decreased by treatment with metformin, a positive control.

[2] = system: C57BL/6 mice injected with NaIO3; experiment: Short-term administration in NaIO3 mouse model of age-related macular degeneration (RPE/choroid flat mount, phalloidin); type: in vivo; settings: NaIO3 20 mg/kg IV mice
Text: Mice injected with sodium iodate (NaIO3) are used as a representative model of age-related macular degeneration. A mouse model of age-related macular degeneration was established by injecting NaIO3 into C57BL/6 mice, thereby inducing oxidative stress specific to retinal pigment epithelial cells and causing damage.
To determine whether the disruption of tight junctions in the retinal pigment epithelium caused by NaIO3 administration was inhibited by GV1001, the retinal pigment epithelium/choroid (RPE/choroid) was flat-mounted, and the junctions between epithelial cells were stained with phalloidin samples and observed using a confocal microscope.
To determine whether the disruption of tight junctions in the retinal pigment epithelial cell layer was inhibited by GV1001, the retinal pigment epithelial layer/choroid was flat-mounted, and the junctions between epithelial cells were stained with phalloidin and observed using a confocal microscope.

[3] = system: C57BL/6 mice injected with NaIO3; experiment: Long-term administration in NaIO3 mouse model of age-related macular degeneration (RPE/choroid flat mount, phalloidin); type: in vivo; settings: NaIO3 20 mg/kg IV mice; for Tight junction structure of the retinal pigment epithelium: long-term post-treatment; for Tight junction structure of the retinal pigment epithelial layer: long-term pre-treatment
Text: A mouse model of age-related macular degeneration was established by injecting […] into C57BL/6 mice and inducing oxidative stress specifically in retinal pigment epithelial cells to cause damage.
The GV1001 dose determined through an efficacy evaluation test by short-term administration was used for efficacy evaluation in long-term administration.
The animal experimental group for verification of efficacy in reducing retinal pigment epithelial degeneration by long-term administration (3 months) of GV1001 was set up as shown in Table 4 below.
To determine whether the disruption of tight junctions in the retinal pigment epithelium was inhibited by GV1001, the retinal pigment epithelium/choroid was flat-mounted, and the junctions between epithelial cells were stained with phalloidin-stained samples and observed using a confocal microscope to determine the degree of disruption of tight junctions.
To determine whether the disruption of the tight junctions in the retinal pigment epithelium was reduced by long-term GV1001 administration, the retinal pigment epithelium/choroid was flat-mounted, and the junctions between epithelial cells were stained with phalloidin and observed using a confocal microscope.

[4] = system: retinal pigment epithelial cell line ARPE-19; experiment: Reduction of epithelial-mesenchymal transition (cadherin 1 / vimentin, confocal microscope) in H2O2-treated retinal pigment epithelial cells; type: cell-based; settings: ARPE-19, H2O2 50 μM
Text: as §1, §2
The degree of epithelial-mesenchymal transition, which indicates degeneration of retinal pigment epithelial cells, was confirmed by observing changes in cadherin 1 as an epithelial cell marker, and vimentin as a mesenchymal cell marker, using a confocal microscope, and the results are shown in FIG. 7.

Compound	DCF-DA fluorescence intensity (reactive oxygen species) ([1]; ARPE-19, H2O2 50 μM, post-treatment (2 h after 24 h H2O2), 0.1 μM)	DCF-DA fluorescence intensity (reactive oxygen species) ([1]; ARPE-19, H2O2 50 μM, post-treatment (2 h after 24 h H2O2), 10 μM)	DCF-DA fluorescence intensity (reactive oxygen species) ([1]; ARPE-19, H2O2 50 μM, pre-treatment (2 h before 24 h H2O2), 0.01 μM)	Tight junction structure of the retinal pigment epithelial cell layer ([2]; short-term post-treatment, 0.5 mg/kg SC three times within one week from 10 days after NaIO3)	Tight junction structure of the retinal pigment epithelial cell layer ([2]; short-term post-treatment, 1.0 mg/kg SC three times within one week from 10 days after NaIO3)	Tight junction structure of the retinal pigment epithelial cell layer ([2]; short-term pre-treatment, 0.1 mg/kg SC three times a week for two weeks)	Tight junction structure of the retinal pigment epithelium ([3]; 0.1 mg/kg SC three times a week for 10 weeks)	Tight junction structure of the retinal pigment epithelium ([3]; 1.0 mg/kg SC three times a week for 10 weeks)	Tight junction structure of the retinal pigment epithelial layer ([3]; 0.1 mg/kg SC three times a week for 12 weeks)	Tight junction structure of the retinal pigment epithelial layer ([3]; 1.0 mg/kg SC three times a week for 12 weeks)	Epithelial-mesenchymal transition (cadherin 1, vimentin) ([4]; post-treatment, 10 μM)	Epithelial-mesenchymal transition (cadherin 1, vimentin) ([4]; pre-treatment, 0.01 μM)	DCF-DA fluorescence intensity (reactive oxygen species) ([1]; ARPE-19, H2O2 50 μM oxidative stress, metformin 1 mM positive control)	Tight junction structure of the retinal pigment epithelial cell layer ([2]; metformin 4 mg/mL in drinking water for 7 days before NaIO3)	Epithelial-mesenchymal transition (cadherin 1, vimentin) ([4]; metformin 1 mM positive control)
GV1001: A peptide consisting of 16 amino acids, having the amino acid sequence of SEQ ID NO: 1, derived from human telomerase (EARPALLTSRLRFIPK; UniProt O14746 611-626, looked up, fragment)	decreased	decreased	decreased	maintained	maintained	maintained	well maintained	well maintained	well maintained	well maintained	reduced	reduced	–	–	–
CN(C)C(=N)N=C(N)N [metformin, reference compound]	–	–	–	–	–	–	–	–	–	–	–	–	decreased	maintained	reduced
